Data published in publication PMC11726359, “Discovery of Rezatapopt (PC14586), a First-in-Class, Small-Molecule Reactivator of p53 Y220C Mutant in Development” (ACS Medicinal Chemistry Letters, 2024).
Like-named read-outs stand apart in the source and are kept apart here. Blank lines part the entries; values can stand above or below the molecule they belong to.

What was measured:
[1] = Half-life in human liver microsomes; type: in vitro ADME; settings: read-out: half-life (T1/2)
Source text: However, there was a significant improvement in potency with fluorine substitution at the hydrophobic anchor (R3 = CF3, compound 7). […] The trifluoromethyl group remained the best anchor throughout the hit expansion and drug discovery campaign. Assessment of the 4-substituted indole compounds (R1 = H, compounds 8–14) led to a breakthrough regarding the potency of the compounds. Our molecular modeling predicted that the side chain of Threonine-150 within the p53 Y220C protein would form a hydrogen bond with the ligand. This interaction helped to orient the ligand in the binding pocket of the p53 Y220C mutant protein and enhance other interactions such as hydrophobic and van der Waals interactions. […] With the nitrogen atom in place, various polar groups were assessed, and it was determined that basic nitrogen, such as that in the piperidine ring, was preferred for maintaining the potency of the compound (R2 = S5). Many substituents can be tolerated for the aromatic ring occupying the subsite.

[2] = target: T1, recombinant His-tag Y220C p53 DNA binding domain (Homo sapiens, UniProt P04637, Y220C); assay: TR-FRET DNA binding assay (SC150); type: biochemical
T1 construct: Y220C p53 DBD protein (amino acids #94-312); made in house
Source text: At the outset of our hit generation campaign, several small molecules targeting the p53 Y220C mutant protein were identified. Two notable examples, supported by crystallographic data, were the compounds from the carbazole series[6] (PhiKan83) and the iodophenol series[7] (PK1596) (Figure 1). To assess the in vitro potency of the p53 Y220C reactivators, a time-resolved fluorescence resonance energy transfer (FRET) assay was developed. In this assay, recombinant His-tag Y220C p53 DNA binding domain binds to biotin-labeled consensus DNA, and the FRET signal is measured between the allophycocyanin-conjugated anti-His-tag antibody and europium-conjugated streptavidin. The […] concentration required to increase DNA binding by 1.5-fold (SC150) could then be determined. The carbazole compound (PhiKan83) enhanced DNA binding with an SC150 of 37.2 μM. […]
Time-Resolved Fluorescence Resonance Energy Transfer (TR-FRET) Assay
DNA binding activity was measured by the TR-FRET assay. In this assay, the recombinant His6-tag Y220C p53 DNA binding domain (DBD) protein binds to biotin labeled consensus DNA. The binding of recombinant His6-tag Y220C p53 DBD protein and biotin-labeled consensus DNA is detected by the fluorescence resonance energy transfer (FRET) between allophycocyanin (APC) conjugated anti-His6 tag antibody and Europium-(Eu) conjugated Streptavidin. Test compounds, at 2 mM stock in DMSO, were diluted t hr e e-f ol d in serial dilutions in DMSO and 1.2 µL per well were added into 384-well polypropylene black plates (NUNC). Subsequently, 30 µL per well of 181 nM recombinant His6-tag Y220C p53 DBD protein (amino acids #94-312) and 9.1 nM of APC conjugated anti-His6 tag antibody (Columbia Biosciences) in ice-cold Assay Buffer 1 (50 mM Tris-HCl, pH 7.4, 75 mM KCl, 0.75 mM DTT and 0.2 mg/mL bovine serum albumin [BSA]) was added. As a background control, 30 µL of Assay Buffer 1 containing 9.1 nM of APC anti-His6 antibody (no Y220C protein) was also added into a second set of serial diluted compound plates. The samples were centrifuged at 1,200 rpm (Eppendorf 5810R plate centrifuge) for 1 minute and incubated at room temperature (20 °C) for 15 min. The samples were then incubated at 27 °C in a water bath for 48 min. Afterwards, 5 µL per well of 145 nM biotin labeled oligonucleotide from a consensus DNA p53 response element (a DNA duplex with 5’ to 3’sequence of […]
and biotin attached to the 3’ end of the complementary DNA) and 8.8 nM Eu-conjugated streptavidin (Columbia Biosciences) in Assay Buffer 2 (50 mM Tris-HCl, pH 7.4, 75 mM KCl and 0.2 mg/mL BSA) were added. The samples were centrifuged at 1,200 rpm for 1 min and incubated at room temperature (20 °C) for 20 min. Assay signals were monitored by reading excitation at 340 nm, and emission fluorescence at 615 and 665 nm, on an Envision reader (Perkin El mer). Normalized TR -FRET assay signal (Rn) was calculated by the formula:
Rn = [(A − B a − C × (D − Bd))/(D − Bd)] × (Dc − B d),
C = (Ac − B a)/(Dc − B d), […]

Caco-2 permeability = type: in vitro ADME; settings: human
Source text: Significant efforts were dedicated to the optimization of compound 13, and a successful approach involved fluorine substitution of the piperidine ring. Fluorine substitution often plays a crucial role in medicinal chemistry, exerting a substantial impact on the characteristics of drug molecules.[12],[13] Incorporation of fluorine atoms can yield diverse effects and improvements in a drug’s pharmacological properties. In the case of the piperidine ring in compound 13, several key effects of fluorine substitution were predicted, including enhanced hydrogen bonding with Threonine-150, increased conformational rigidity of the piperidine ring, and reduced basicity. […] We postulated that the fluorine atom on the piperidine ring of compound 22, which preferentially stays in the axial position, can form a better hydrogen bond with the N-H group of Threonine-150. The enhanced cellular potency of compound 22 can be attributed to the enhanced permeability. […] Recently, insights into the conformational behavior of cis-fluorinated piperidines were reported.[14]

[3] = test system: NUGC-3, gastric cancer cell line with a TP53 Y220C mutation; assay: MTT cell proliferation assay; type: cell-based, human; settings: for IC50: Homo sapiens, NUGC-3, 120 h, NUGC-3 cells, five days incubation
Description: We also evaluated the effects of these compounds on the growth and viability of four cancer cell lines in vitro. Two of the cell lines (NUGC-3, gastric cancer cell line with a TP53 Y220C mutation and T3M-4, pancreatic carcinoma cell line) have the TP53 Y220C mutation leading to the p53 Y220C mutant protein; SJSA-1 is a p53 WT cell line, and NUGC-3-KO is an isogenic p53 knockout cell line.[11] After incubating the cells with the compounds for five days, cell viability was measured using the 3-(4,5-dimethylthiazol-2-yl)-2,5-diphenyltetrazolium bromide (MTT) assay.
C = (Ac − B a)/(Dc − B d),
Prism (GraphPad) or XLfit software (IDBS).
Cells were seeded at an appropriate
Compounds were tested at eight concentrations with 2-fold serial dilutions. […]
with a reference wavelength of 650 nm. […]
untreated cells (control). […]

[4] = Pharmacokinetic study in mice; settings: 50 mg/kg
Description: (§1) Pharmacokinetic parameters were evaluated in female CD-1 mice. Animals received an oral gavage dose of 50 mg/kg of the test article. The test article was formulated in a solution containing 2% hydroxypropyl
(§2) cellulose and 0.5% Tween 80 in water. Blood samples were collected at 0.5, 1, 2, 4, 7, and 24 h post dose.
(§3) Blood samples were processed into plasma, and the concentrations of the test article were determined by
(§4) LC-MS/MS. P harmacokinetic parameters were calculated using the Phoenix WinNonlin 6.3 program,
(§5) employing a non- compartmental model 200.

NUGC-3 tumor xenografts = assay: NUGC-3 tumor xenograft efficacy in nude mice; type: in vivo, mouse; settings: for inhibition of tumor growth: oral, daily
Description: Compound 26 (rezatapopt; PC14586), which had the most favorable plasma exposure, was evaluated for its ability to inhibit the growth of NUGC-3 tumor xenografts in nude mice.
Study of C ompound 26 in NUGC-3 Xenograft
Female Balb/c nude mice, aged 4 to 6 weeks, were obtained from Envigo (Madison, WI). All mice were housed at the PMV Pharmaceuticals Vivarium. Mouse care and experimental procedures adhered to institutional guidelines for ethical use, with all research protocols approved by the Institutional Animal Care and Use Committees of PMV Pharmaceuticals. The mice were maintained at ambient temperatures of 68–72 °F, with 30–70% humidity, and a 12 -hour dark/light cycle.
NUGC-3 cells were resuspended at a concentration of 1×10^7 viable cells/mL in a 50:50 mixture of phosphate-buffered saline and Matrigel Matrix (Corning). Subsequently, 100 µL of the suspension was injected subcutaneously into the dorsal flankof the mice . Mice were selected and randomized into treatment groups based on tumor size.

[5] = test system: TP53 Y220C mutant solid tumors; set-up: method as in doi:10.1158/1535-7163.TARG-23-LB_A25; settings: cited from earlier work
Toxicological studies = settings: result in words
[6] = female, CD-1, mouse, in vivo, po, 50 mg/kg
Description: as §1, §2, §3, §4, §5

[7] = Table 1, concentration required to increase DNA binding by 1.5-fold
[8] = Table 2, concentration required to increase DNA binding by 1.5-fold
[9] = Table 3, concentration required to increase DNA binding by 1.5-fold

Structure (SMILES): CCn1c(C#CCNc2ccccc2)cc2cc(CNC)ccc21 [Compound 1, N-[3-[1-ethyl-5-(methylaminomethyl)indol-2-yl]prop-2-ynyl]aniline]
half-life [1]: 4 min
SC150 ([2]; Figure 1, enhancement of DNA binding): 13600 nM
SC150 [2, 7]: 13600 nM

Structure (SMILES): COc1cc(S(C)(=O)=O)ccc1NCC#Cc1cc2c(NC3CCN(C)CC3)cccc2n1CC(F)(F)F [Compound 13]
Papp (Caco-2 permeability): 11.8 ×10⁻⁶ cm/s
IC50 ([3]; Table 2): 2100 nM
SC150 [2, 7]: 23 nM
SC150 [2, 8]: 23 nM
Mouse PK Exposure AUC0-last ([4]; Table 2, PO): 3545 ng·h/mL
Mouse PK Exposure Cmax ([4]; Table 2, PO): 903 ng/mL

Structure (SMILES): COc1cc(S(C)(=O)=O)ccc1NCC#Cc1cc2c(N[C@@H]3CCN(C)C[C@@H]3F)cccc2n1CC(F)(F)F [Compound 22, N-[(3S,4R)-3-fluoro-1-methyl-4-piperidyl]-2-[3-(2-methoxy-4-methylsulfonyl-anilino)prop-1-ynyl]-1-(2,2,2-trifluoroethyl)indol-4-amine]
Papp (Caco-2 permeability): 19.9 ×10⁻⁶ cm/s
IC50 ([3]; Table 2): 300 nM
IC50 ([3]; Table 3): 325 nM
fold increased potency compared with compound 13 ([3]; MTT assay, vs compound 13): approximately 7 fold
SC150 [2, 8]: 8 nM
Mouse PK Exposure AUC0-last ([4]; Table 2, PO): 12567 ng·h/mL
Mouse PK Exposure Cmax ([4]; Table 2, PO): 2103 ng/mL

Structure (SMILES): COc1cc(C(=O)O)ccc1NCC#Cc1cc2c(N[C@@H]3CCN(C)C[C@@H]3F)cccc2n1CC(F)(F)F [Compound 24, 4-((3-(4-(((3S,4R)-3-fluoro-1-methylpiperidin-4-yl)amino)-1-(2,2,2-trifluoroethyl)-1H-indol-2-yl)prop-2-yn-1-yl)amino)-3-methoxybenzoic acid]
tumor growth inhibition (NUGC-3 tumor xenografts; 150 mg/kg, same xenograft model): 54%
IC50 ([3]; Table 3): 990 nM
SC150 [2, 9]: 11 nM
Mouse PK Exposure AUC0-last ([4]; Table 3, PO): 57882 ng·h/mL
Mouse PK Exposure Cmax ([4]; Table 3, PO): 27700 ng/mL

More lines, main results first:

IC50 ([3]; Table 3): 446 nM
SC150 [2, 9]: 8 nM
Mouse PK Exposure AUC0-last ([4]; Table 3, PO): 39774 ng·h/mL
Mouse PK Exposure Cmax ([4]; Table 3, PO): 4473 ng/mL
Structure (SMILES): COc1cc(C(N)=O)ccc1NCC#Cc1cc2c(N[C@@H]3CCN(C)C[C@@H]3F)cccc2n1CC(F)(F)F [Compound 25, 4-[3-[4-[[(3S,4R)-3-fluoro-1-methyl-4-piperidyl]amino]-1-(2,2,2-trifluoroethyl)indol-2-yl]prop-2-ynyl-amino]-3-methoxy-benzamide]

IC50 ([3]; Table 3): 504 nM
SC150 [2, 9]: 9 nM
Mouse PK Exposure AUC0-last ([4]; Table 3, PO): 163342 ng·h/mL
Mouse PK Exposure Cmax ([4]; Table 3, PO): 16600 ng/mL
Structure (SMILES): CNC(=O)c1ccc(NCC#Cc2cc3c(N[C@@H]4CCN(C)C[C@@H]4F)cccc3n2CC(F)(F)F)c(OC)c1 [Compound 26]
clinical efficacy in Phase 1 clinical trials ([5]; heavily pretreated patients, solid tumors harboring TP53 Y220C, listed as rezatapopt): single-agent clinical efficacy was achieved
safety profile in Phase 1 clinical trials ([5]; within the efficacious dose range): favorable safety profile
tumor regression (NUGC-3 tumor xenografts; 100 mg/kg, nude mice): 80%
effect on established human tumor xenografts harboring TP53 Y220C (NUGC-3 tumor xenografts; mouse models, well-tolerated doses, result in words): tumor inhibition and regression
inhibition of tumor growth (NUGC-3 tumor xenografts; 25 mg/kg, nude mice): 33%
inhibition of tumor growth (NUGC-3 tumor xenografts; 50 mg/kg, nude mice): 71%
safety profile in toxicological studies (Toxicological studies): favorable safety profile

IC50 ([3]; Table 3): 531 nM
SC150 [2, 9]: 7 nM
Mouse PK Exposure AUC0-last ([4]; Table 3, PO): 3261 ng·h/mL
Mouse PK Exposure Cmax ([4]; Table 3, PO): 807 ng/mL
Structure (SMILES): COc1cc(C(=O)NC2CCOCC2)ccc1NCC#Cc1cc2c(N[C@@H]3CCN(C)C[C@@H]3F)cccc2n1CC(F)(F)F [Compound 27, 4-((3-(4-(((3S,4R)-3-fluoro-1-methylpiperidin-4-yl)amino)-1-(2,2,2-trifluoroethyl)-1H-indol-2-yl)prop-2-yn-1-yl)amino)-3-methoxy-N-(tetrahydro-2H-pyran-4-yl)benzamide]

Mouse PK Exposure AUC0-last [6]: 15328 ng·h/mL
Mouse PK Exposure Cmax [6]: 2747 ng/mL
IC50 ([3]; Table 3): 457 nM
SC150 [2, 9]: 7 nM
Structure (SMILES): COc1cc(C(=O)N2CC3(COC3)C2)ccc1NCC#Cc1cc2c(N[C@@H]3CCN(C)C[C@@H]3F)cccc2n1CC(F)(F)F [Compound 28, [4-[3-[4-[[(3S,4R)-3-fluoro-1-methyl-4-piperidyl]amino]-1-(2,2,2-trifluoroethyl)indol-2-yl]prop-2-ynyl-amino]-3-methoxy-phenyl]-(2-oxa-6-azaspiro[3.3]heptan-6-yl)methanone]

IC50 ([3]; Table 3): 574 nM
SC150 [2, 9]: 8 nM
Mouse PK Exposure AUC0-last ([4]; Table 3, PO): 117 ng·h/mL
Mouse PK Exposure Cmax ([4]; Table 3, PO): 54 ng/mL
Structure (SMILES): COc1cc(C(=O)NCC(O)CO)ccc1NCC#Cc1cc2c(N[C@@H]3CCN(C)C[C@@H]3F)cccc2n1CC(F)(F)F (stereo partly drawn) [Compound 29, N-(2,3-dihydroxypropyl)-4-[3-[4-[[(3S,4R)-3-fluoro-1-methyl-4-piperidyl]amino]-1-(2,2,2-trifluoroethyl)indol-2-yl]prop-2-ynylamino]-3-methoxy-benzamide]
